Laboratory results as given in patent EP0121352A1, “A leader sequence to promote the secretion of gene products” (priority 1983, dated 1984).

Tests used:
[1] = target: T1, Carboxypeptidase G2 (CPG2) purified from E.coli clone pNM21 (cloned gene from Pseudomonas species strain RS-16) (Pseudomonas sp., UniProt P06621); assay: Km determination of purified carboxypeptidase G2 synthesised in E.coli (cloned gene product), methotrexate as substrate; type: biochemical, Pseudomonas species strain RS-16 (expressed in E.coli); conditions: CPG2 purified from E.coli carrying pNM21; read-out: Km vallues using methotrexate as substrate
T1 construct: Amino acids 23 to 415 are the CPG2 structural gene; made in house; host or cells: E. coli W5445 carrying plasmid pNM21
Method: (§1) CPG2 activity was determined after J L McCullough et al, J.Biol.Chem, 1971, 246, 7207. A.lml reaction cuvette containing 0.9 ml of 0.1 M Tris-HCl, pH 7.3 plus 0.2 mM ZnSO4 and 0.1 ml of 0.6 mM methotrexate was equilibrated at 37°C. Enzyme extract was added to the test cuvette and the decrease in absorbance at 320 nm measured using a Pye-Unicam SP1800 double-beam spectrophotometer. Enzyme activity per ml extract was calculated as Δ 320 nm absorbance/min divided by 8.3, which is equivalent to the hydrolysis of 1 µmol of MTX/min at 37°C.
(§2) To determine whether the cloned gene= product in E.coli had the same properties as CPG2 from the pseudomonad, enzyme was purified from E.coli carrying pNM21.

[2] = target: Carboxypeptidase G2 (CPG2) from Pseudomonas strain RS-16 (Pseudomonas sp., UniProt P06621); conditions: read-out: Km vallues using methotrexate as substrate
Chain of Carboxypeptidase G2 (CPG2) from Pseudomonas strain RS-16 (P06621 23-415): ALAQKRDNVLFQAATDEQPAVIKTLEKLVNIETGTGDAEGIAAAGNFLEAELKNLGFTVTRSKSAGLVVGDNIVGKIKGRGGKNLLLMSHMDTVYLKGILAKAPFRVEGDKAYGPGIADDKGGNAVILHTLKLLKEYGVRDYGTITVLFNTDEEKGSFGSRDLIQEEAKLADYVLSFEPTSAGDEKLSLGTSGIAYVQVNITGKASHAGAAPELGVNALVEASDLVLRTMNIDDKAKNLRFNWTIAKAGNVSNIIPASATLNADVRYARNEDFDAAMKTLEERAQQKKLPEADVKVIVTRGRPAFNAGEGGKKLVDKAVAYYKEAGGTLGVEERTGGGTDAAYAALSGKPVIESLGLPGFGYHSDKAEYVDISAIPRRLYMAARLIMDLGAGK
Method: as §1, §2

T1 sequence (P06621 23-415): as above

CN(Cc1cnc2nc(N)nc(N)c2n1)c1ccc(C(=O)N[C@@H](CCC(=O)O)C(=O)O)cc1 [methotrexate]
Km [1]: 7.4 µM | Km [2]: 8 µM
